Patent publication US12385042B2, “Cell-penetrating peptides” (VECTIOPEP OÜ, priority 2019, dated 2025)
Entries after “also recorded” stand apart in the source; their conditions may differ. Where two headings read alike, the source gives them in different places. Where a SMILES comes first, the peptide text is derived from it. Bridges are numbered along the chain shown (N, C = ends). Roman numbers before positions name the chains, in order. [ ]: non-standard residue; d: D form. The star is where a group is joined. Arachidoyl = CCCCCCCCCCCCCCCCCCCC(=O)*; Stearoyl = CCCCCCCCCCCCCCCCCC(=O)*; Orn = NCCC[C@H](N)C(=O)O

Tests used:
[1] = tested on: organs of BALB/c mice; test: Gene delivery in vivo (CPP/pDNA, i.v., organ luminescence); set-up: species or system mouse; settings: for reporter gene expression in organs after i.v. CPP/pDNA (in words): CR2 or CR4, 50 μg or 20 μg pDNA, 24 h
Experimental: For in vivo pDNA delivery studies BALB/c mice were used. Each animal received a single […] intravenous (i.v.) injection of the complexes at CR2 or CR4. Two doses of pDNA […] were used. After 24 hr, the mice were sacrificed using cervical dislocation, and whole organs were harvested and snap-frozen on dry ice. The organs were homogenized, and luminescence was measured.

[2] = Fluorescent dye (PicoGreen) intercalation and heparin displacement assay of CPP/siRNA complexes; assay type: physicochemical; settings: for accessibility of siRNA in complexes (dye intercalation): MR30, no heparin
In short: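 PicoGreen fluorescence (ex 492/em 535 nm) of CPP/siRNA complexes in water after 5 min with dye, reporting siRNA accessibility. In the displacement arm, complexes were first incubated with heparin at varying concentrations for 30 min at 37 °C before adding PicoGreen.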

[3] = tested on: murine red blood cells; test: Membrane activity assay on murine red blood cells: hemolysis; assay type: cell-based, mouse; settings: for HC50 CPP/siRNA complex (peptide concentration): CPP/siRNA complexes at MR30; for HC50 Free peptide: pH 7.5
In short: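 Washed BALB/c mouse RBCs in 2× PBS (pH 7.5 for hemolytic concentration; pH 5.5-7.5 otherwise) incubated with peptide plus glucose at 37° C for 1 h with gentle mixing. Released hemoglobin in supernatant read at 540 nm, scaled between glucose/water (0%) and 0.1% Triton X-100 (100%) controls.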

[4] = tested on: U87 MG-luc2 human glioma cells, stably expressing luc2; test: Luciferase gene downregulation by CPP/siRNA (siLuc2) complexes; assay type: cell-based; settings: for luciferase downregulation efficiency (in words) / Red (%) (reduction, based on remaining luminescence on U87 cells post-treatment): CPP/siRNA complexes; for luciferase downregulation efficiency (in words): comparison between CPPs; for Red (%) (reduction, based on remaining luminescence on U87 cells post-treatment): siRNA against luciferase; for IC50: read-out: IC50 (siRNA concentration), luciferase downregulation; for remaining reporter activity: molar ratio 30 (MR30, peptide to siRNA), untreated cells 100%
In short: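 U87-luc2 cells in serum-containing medium got peptide/siLuc2 complexes formed in water (pH 5.3-6.3, MR 40:1, 1 h RT) at 25 nM siRNA for 4 h at 37 °C, then 20 h more. Lysate luminescence normalized to protein; in other runs, MR30/10 nM in HEPES-FBS, or varied MR at 50 nM, vs untreated (100%).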

[5] = complexes formed at MR30, average

Compound	reporter gene expression in organs after i.v. CPP/pDNA (in words) [1]	accessibility of siRNA in complexes (dye intercalation) [2]	HC50 CPP/siRNA complex (peptide concentration) [3]	HC50 Free peptide ([3]; free peptide)	Red (%) (reduction, based on remaining luminescence on U87 cells post-treatment) [4]	IC50 [4, 5]	remaining reporter activity [4]	further results
CCCCCCCCCCCCCCCCCCCC(=O)N[C@@H](Cc1c[nH]cn1)C(=O)N[C@@H](Cc1c[nH]cn1)C(=O)N[C@@H](Cc1c[nH]cn1)C(=O)N[C@@H](Cc1c[nH]cn1)C(=O)N[C@@H](Cc1ccc(O)cc1)C(=O)N[C@@H](Cc1c[nH]cn1)C(=O)N[C@@H](Cc1c[nH]cn1)C(=O)NCC(=O)NCCC[C@H](N)C(=O)N[C@H](C(=O)N[C@@H](CC(C)C)C(=O)N[C@@H](CC(C)C)C(=O)N[C@@H](CCCCN)C(=O)N[C@@H](C)C(=O)N[C@@H](CC(C)C)C(=O)N[C@@H](CCCCN)C(=O)N[C@@H](C)C(=O)N[C@@H](CC(C)C)C(=O)N[C@@H](C)C(=O)N[C@@H](CCCCN)C(=O)N[C@@H](C)C(=O)N[C@H](C(=O)N[C@@H](CC(C)C)C(N)=O)[C@@H](C)CC)[C@@H](C)CC [NF70] (I: H-[Orn]ILLKALKALAKAIL-NH2 / II: Arachidoyl-HHHHYHHG; amide I:1-II:C)	very low transfection levels in vivo	low accessibility of siRNA	8.3 µM	4.3 µM	92%	14.8 nM	15%	hemolytic concentration, fold higher than NF71 [3]: 3.6; HC50 times higher than that of NF55 ([3]; free peptide): 2.5 times; pH dependent hemolytic activity (in words) ([3]; peptide 0.75 uM, buffer pH 5.5-7.5): the increase was less substantial; luciferase downregulation efficiency (in words) ([4]; listed as H6-C20): equally strong downregulation of the luciferase gene; also recorded: at MR40 it was even more efficient than PF6 or H4-C18; downregulation of luciferase activity ([4]; H6 series, effect of fatty acid length): up to 95%; IC50 ([4]; complexes formed at MR30, average, listed as H6-C20): 14.7 nM; IC50 ([4]; complexes formed at MR30 and MR40, similar average value): 14.7 to 14.8 nM
CCCCCCCCCCCCCCCCCC(=O)N[C@@H](Cc1c[nH]cn1)C(=O)N[C@@H](Cc1c[nH]cn1)C(=O)N[C@@H](Cc1ccc(O)cc1)C(=O)N[C@@H](Cc1c[nH]cn1)C(=O)N[C@@H](Cc1c[nH]cn1)C(=O)NCC(=O)NCCC[C@H](N)C(=O)N[C@H](C(=O)N[C@@H](CC(C)C)C(=O)N[C@@H](CC(C)C)C(=O)N[C@@H](CCCCN)C(=O)N[C@@H](C)C(=O)N[C@@H](CC(C)C)C(=O)N[C@@H](CCCCN)C(=O)N[C@@H](C)C(=O)N[C@@H](CC(C)C)C(=O)N[C@@H](C)C(=O)N[C@@H](CCCCN)C(=O)N[C@@H](C)C(=O)N[C@H](C(=O)N[C@@H](CC(C)C)C(N)=O)[C@@H](C)CC)[C@@H](C)CC [NF71] (I: H-[Orn]ILLKALKALAKAIL-NH2 / II: Stearoyl-HHYHHG; amide I:1-II:C)	high reporter gene expression in liver and lungs	low accessibility of siRNA	2.5 µM	1.2 µM	88%	6.8 nM	13%	transfection level in liver at CR2 compared to CR4 ([1]; liver): 7 fold; transfection level in lungs at CR2 compared to CR4 ([1]; lungs): 3 fold; siRNA accessible ([2]; 0.5 mg/ml heparin, complexes pre-formed at MR30): 17%; stability of complexes to heparin displacement (in words) ([2]; complexes pre-formed at MR30): less resistant to heparin displacement than NF55/siRNA; hemolytic activity of free peptide (in words) ([3]; free peptide, up to 10 uM): more hemolytic than its parent peptide NF55; luciferase downregulation efficiency (in words) [4]: most efficient peptides even at low MRs; IC50 ([4]; complexes formed at MR20): 11.1 nM
